Test results taken from ChEMBL document CHEMBL5030563, “Structure-Based Design of Dual-Acting Compounds Targeting Adenosine A2A Receptor and Histone Deacetylase as Novel Tumor Immunotherapeutic Agents” (J Med Chem, 2021).
pIC50, pKi: −log10 of the molar value.

How the values were obtained:
[1] = MRT in ICR mouse at 5 mg/kg, iv up to 24 hrs by LC-MS/MS analysis; type: ADME, organism-based; details: in vivo
MC-38 [2] = experiment: Antitumour activity against mouse MC38 cells in C57BL/6 mouse assessed as tumour growth inhibition at 30 mg/kg, ip, bid measured after 9 days relative to control; type: functional; details: MC-38, ip, 216 h, time 9 day, read-out: TGI
[3] = Elimination rate constant in ICR mouse at 20 mg/kg, ip up to 24 hrs by LC-MS/MS analysis; type: ADME, organism-based; details: in vivo
Adenosine receptor A2a = Adenosine receptor A2a (Homo sapiens, UniProt P29274); experiment: Displacement of [3H]SCH58261 from adenosine A2A receptor membrane (unknown origin) measured after 60 mins by scintillation counting analysis; type: cell membranes
[4] = molecular target: T1, Polyamine deacetylase HDAC10 (Homo sapiens, UniProt Q969S8); experiment: Inhibition of HDAC10 (unknown origin) assessed as release of 7-amino-4-methylcoumarin incubated in room temperature for 15 min measured by Spectra max microtitre plate reader
T1 sequence (Q969S8 whole entry): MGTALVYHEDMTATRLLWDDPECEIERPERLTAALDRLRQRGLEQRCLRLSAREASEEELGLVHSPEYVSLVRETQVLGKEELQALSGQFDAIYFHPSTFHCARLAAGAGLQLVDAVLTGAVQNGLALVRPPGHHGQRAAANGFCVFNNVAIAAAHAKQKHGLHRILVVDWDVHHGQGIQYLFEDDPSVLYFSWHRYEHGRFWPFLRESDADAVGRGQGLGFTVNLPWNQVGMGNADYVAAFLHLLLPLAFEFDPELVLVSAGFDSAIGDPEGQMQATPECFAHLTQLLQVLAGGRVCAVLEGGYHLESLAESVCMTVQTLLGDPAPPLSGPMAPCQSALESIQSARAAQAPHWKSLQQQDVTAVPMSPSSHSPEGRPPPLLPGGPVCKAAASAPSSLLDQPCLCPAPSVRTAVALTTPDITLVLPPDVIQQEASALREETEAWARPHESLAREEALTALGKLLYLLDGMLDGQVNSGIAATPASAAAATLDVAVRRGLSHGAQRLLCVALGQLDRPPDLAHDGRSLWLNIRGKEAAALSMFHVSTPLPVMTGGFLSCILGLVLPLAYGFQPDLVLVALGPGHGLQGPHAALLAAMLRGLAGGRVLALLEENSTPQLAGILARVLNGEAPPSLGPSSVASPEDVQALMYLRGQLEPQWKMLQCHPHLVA

[5] = AUC (0 to infinity) in ICR mouse at 5 mg/kg, iv up to 24 hrs by LC-MS/MS analysis; type: ADME, organism-based; set-up: route intravenous, dose 5 mg/kg, time <=24; details: in vivo
MC-38 [6] = experiment: Antiproliferative activity against mouse MC38 cells measured after 72 hrs by CCK8 assay; type: functional; details: Mus musculus, MC-38
[7] = Half life in ICR mouse at 5 mg/kg, iv up to 24 hrs by LC-MS/MS analysis; type: ADME, organism-based; details: in vivo
Histone deacetylase 5 = Histone deacetylase 5 (Homo sapiens, UniProt Q9UQL6); experiment: Inhibition of HDAC5 (unknown origin) assessed as release of 7-amino-4-methylcoumarin incubated in room temperature for 15 min measured by Spectra max microtitre plate reader
[8] = molecular target: T2, Protein deacetylase HDAC6 (Homo sapiens, UniProt Q9UBN7); experiment: Inhibition of HDAC6 (unknown origin) assessed as release of 7-amino-4-methylcoumarin incubated in room temperature for 15 min measured by Spectra max microtitre plate reader
T2 sequence (Q9UBN7 whole entry): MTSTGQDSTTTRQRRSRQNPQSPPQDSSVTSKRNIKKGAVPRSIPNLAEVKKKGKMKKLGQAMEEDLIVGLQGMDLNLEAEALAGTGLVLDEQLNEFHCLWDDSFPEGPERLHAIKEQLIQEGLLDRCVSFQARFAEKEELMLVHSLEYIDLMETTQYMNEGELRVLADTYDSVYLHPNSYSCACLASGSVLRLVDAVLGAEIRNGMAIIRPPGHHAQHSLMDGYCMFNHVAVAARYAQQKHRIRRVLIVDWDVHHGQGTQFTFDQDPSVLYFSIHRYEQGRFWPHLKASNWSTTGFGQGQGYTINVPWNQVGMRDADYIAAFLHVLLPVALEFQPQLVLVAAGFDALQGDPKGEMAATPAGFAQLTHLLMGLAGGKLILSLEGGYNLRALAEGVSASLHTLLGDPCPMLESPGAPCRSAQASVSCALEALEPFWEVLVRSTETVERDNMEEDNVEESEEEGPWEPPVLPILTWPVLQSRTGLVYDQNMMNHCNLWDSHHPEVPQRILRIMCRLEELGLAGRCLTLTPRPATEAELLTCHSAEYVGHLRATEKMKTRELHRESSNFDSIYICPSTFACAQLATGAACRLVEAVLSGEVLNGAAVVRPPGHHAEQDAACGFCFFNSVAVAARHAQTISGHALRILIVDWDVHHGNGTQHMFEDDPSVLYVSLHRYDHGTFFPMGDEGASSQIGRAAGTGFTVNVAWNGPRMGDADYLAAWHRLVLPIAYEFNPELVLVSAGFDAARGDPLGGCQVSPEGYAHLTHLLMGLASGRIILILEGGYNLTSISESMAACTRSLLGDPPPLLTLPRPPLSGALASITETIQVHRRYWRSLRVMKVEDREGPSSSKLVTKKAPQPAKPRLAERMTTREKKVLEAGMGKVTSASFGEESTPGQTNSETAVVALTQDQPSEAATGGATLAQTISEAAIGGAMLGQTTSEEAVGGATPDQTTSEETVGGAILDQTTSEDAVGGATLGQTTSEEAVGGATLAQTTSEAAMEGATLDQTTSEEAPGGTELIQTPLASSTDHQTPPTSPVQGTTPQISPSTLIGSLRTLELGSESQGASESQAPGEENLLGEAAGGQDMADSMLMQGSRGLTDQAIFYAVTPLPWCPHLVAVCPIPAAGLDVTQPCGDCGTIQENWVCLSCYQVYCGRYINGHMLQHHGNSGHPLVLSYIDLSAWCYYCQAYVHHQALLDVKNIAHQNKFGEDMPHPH

[9] = Half life in ICR mouse at 20 mg/kg, po by LC-MS/MS analysis; type: ADME, organism-based; details: in vivo
[10] = AUC (0 to infinity) in ICR mouse at 20 mg/kg, ip up to 24 hrs by LC-MS/MS analysis; type: ADME, organism-based; set-up: route intraperitoneal, dose 20 mg/kg, time <=24; details: in vivo
[11] = Elimination rate constant in ICR mouse at 5 mg/kg, iv up to 24 hrs by LC-MS/MS analysis; type: ADME, organism-based; details: in vivo

Histone deacetylase 5, sequence (Q9UQL6 whole entry): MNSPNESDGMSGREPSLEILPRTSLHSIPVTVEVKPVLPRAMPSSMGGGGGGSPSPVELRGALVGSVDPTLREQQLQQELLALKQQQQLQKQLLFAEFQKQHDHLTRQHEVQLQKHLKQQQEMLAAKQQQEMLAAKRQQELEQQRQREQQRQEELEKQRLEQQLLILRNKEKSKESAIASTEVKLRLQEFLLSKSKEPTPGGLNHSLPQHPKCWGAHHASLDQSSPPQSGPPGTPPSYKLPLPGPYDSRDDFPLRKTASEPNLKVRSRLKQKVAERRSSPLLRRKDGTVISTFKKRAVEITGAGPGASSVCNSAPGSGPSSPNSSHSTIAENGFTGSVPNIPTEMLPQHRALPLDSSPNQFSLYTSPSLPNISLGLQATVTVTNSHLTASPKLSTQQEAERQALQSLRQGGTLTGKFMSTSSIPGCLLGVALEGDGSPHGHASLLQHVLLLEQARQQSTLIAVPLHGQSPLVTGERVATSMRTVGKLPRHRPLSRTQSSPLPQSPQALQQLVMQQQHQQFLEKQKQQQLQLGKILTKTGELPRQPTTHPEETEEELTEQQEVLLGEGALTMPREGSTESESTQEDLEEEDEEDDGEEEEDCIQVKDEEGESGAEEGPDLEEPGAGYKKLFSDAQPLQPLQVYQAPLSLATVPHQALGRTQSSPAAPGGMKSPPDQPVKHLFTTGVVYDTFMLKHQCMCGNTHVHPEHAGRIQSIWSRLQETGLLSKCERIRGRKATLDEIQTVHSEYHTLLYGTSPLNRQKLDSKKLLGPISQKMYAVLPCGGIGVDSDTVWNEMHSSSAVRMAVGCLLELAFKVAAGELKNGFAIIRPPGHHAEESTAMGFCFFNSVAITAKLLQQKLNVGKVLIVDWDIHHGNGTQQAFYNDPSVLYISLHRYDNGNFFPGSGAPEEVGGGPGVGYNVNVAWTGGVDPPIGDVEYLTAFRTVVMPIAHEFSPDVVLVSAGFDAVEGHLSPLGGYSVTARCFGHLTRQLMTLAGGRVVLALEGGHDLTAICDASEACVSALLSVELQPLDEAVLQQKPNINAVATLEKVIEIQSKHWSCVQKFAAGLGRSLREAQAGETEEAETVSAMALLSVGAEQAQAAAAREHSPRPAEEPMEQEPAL
Adenosine receptor A2a, sequence (P29274 whole entry): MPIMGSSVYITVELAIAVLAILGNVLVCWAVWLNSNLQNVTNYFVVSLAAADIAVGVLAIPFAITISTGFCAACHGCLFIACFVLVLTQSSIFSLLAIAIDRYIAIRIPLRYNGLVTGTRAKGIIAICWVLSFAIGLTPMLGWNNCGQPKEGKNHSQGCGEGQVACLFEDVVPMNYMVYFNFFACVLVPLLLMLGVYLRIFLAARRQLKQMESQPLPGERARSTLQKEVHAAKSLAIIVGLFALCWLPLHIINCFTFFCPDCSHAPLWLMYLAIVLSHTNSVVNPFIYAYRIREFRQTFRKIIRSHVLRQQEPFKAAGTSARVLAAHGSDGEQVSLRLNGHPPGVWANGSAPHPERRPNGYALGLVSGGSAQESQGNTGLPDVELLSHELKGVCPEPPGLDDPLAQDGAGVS

- MRT [1]: 20 min
- k el at 24 h [3]: 0.000138 s⁻¹
- pKi (Adenosine receptor A2a): 8.66
- pIC50 [4]: 6.20
- AUC(0-inf) [5]: 1470 ng·h/mL
- half-life [7]: 17.1 min
- pIC50 (Histone deacetylase 5): < 5.00
- pIC50 [8]: < 5.00
- half-life [9]: 118 min
- AUC(0-inf) [10]: 6630 ng·h/mL
- k el at 24 h [11]: 0.000678 s⁻¹
Structure (SMILES): Nc1ccccc1NC(=O)c1ccc(CCn2ncc3c2nc(N)n2nc(-c4ccco4)nc32)cc1
- inhibition in vivo at 30 mg/kg (MC-38 [2]): 57.8%
- GI50 (MC-38 [6]): 6.2 µM
